Experimental data as given in patent US20110224215A1, “PRE-SURGICAL TREATMENT” (GALDERMA LABORATORIES, INC., priority 2007, published 2011).

Assays:
facial skin = conditions: 0.10% in a gel formulation, applied to facial skin fifteen minutes prior to shaving
Source text: Fifteen minutes prior to shaving, a person applies 0.10% brimonidine tartrate in a gel formulation to the facial skin where they will shave.

[1] = tested on: area of skin where the incision will be made; conditions: bandage soaked in a solution of 0.25%, applied thirty minutes prior to surgery, removed immediately before incision
Source text: Thirty minutes prior to undergoing surgery for an appendectomy, a bandage that is soaked in a solution of 0.25% brimonidine is applied to the area of skin where the incision will be made. The bandage is removed immediately before the incision is made.

[2] = tested on: patients undergoing LASIK surgery; conditions: prophylactic dosages prior to LASIK surgery for primary myopia/myopic astigmatism or hyperopic astigmatism; cited from earlier work

| Structure (SMILES) | bleeding from cuts while shaving (facial skin) | bleeding and bruising following the surgical procedure [1] | hyperemia [2] | occurrence of subconjunctival hemorrhage [2] |
| --- | --- | --- | --- | --- |
| Brc1c(N=C2NCCN2)ccc2nccnc12.O=C(O)C(O)C(O)C(=O)O [brimonidine tartrate, 5-bromo-6-(2-imidazolidinylideneamino) quinoxaline L-tartrate] | will prevent excessive bleeding | – | – | – |
| Brc1c(N=C2NCCN2)ccc2nccnc12 [brimonidine, 5-bromo-6-(2-imidazolidinylideneamino)quinoxaline] | – | will significantly reduce bleeding and bruising | less hyperemia | less occurrence |
